The values below come from ChEMBL document CHEMBL3046180, “Antifungal activity of some diaryl ethers” (2007).

What all share (assay type): functional
Holding throughout (conditions): 96 h, read-out: GI

Assay [1] concerns Bipolaris sorokiniana. The assay is described as follows: Growth inhibition of Bipolaris sorokiniana at 50 ug/ml after 4 days by poisoned food technique.
Assay [2] relates to Bipolaris sorokiniana. Description: Growth inhibition of Bipolaris sorokiniana at 500 ug/ml after 4 days by poisoned food technique.
The test system of assay [3] is Alternaria brassicae. The assay is described as follows: Growth inhibition of Alternaria brassicae at 50 ug/ml after 4 days by poisoned food technique.
The subject of assay [4] is Alternaria brassicae. Description: Growth inhibition of Alternaria brassicae at 500 ug/ml after 4 days by poisoned food technique.
For assay [5], the system named is Fusarium oxysporum f. sp. cucumerinum. The assay is described as follows: Growth inhibition of Fusarium oxysporum f. sp. cucumerinum at 50 ug/ml after 4 days by poisoned food technique.
Assay [6] shares this test system. Description: Growth inhibition of Fusarium oxysporum f. sp. cucumerinum at 500 ug/ml after 4 days by poisoned food technique.
Assay [7] has as its system Fusarium oxysporum f. sp. vasinfectum. The assay is described as follows: Growth inhibition of Fusarium oxysporum f. sp. vasinfectum at 50 ug/ml after 4 days by poisoned food technique.
Assay [8] shares this test system. The assay is described as follows: Growth inhibition of Fusarium oxysporum f. sp. vasinfectum at 500 ug/ml after 4 days by poisoned food technique.
Assay [9] concerns Pyricularia oryzae. The assay is described as follows: Growth inhibition of Magnaporthe oryzae at 50 ug/ml after 4 days by poisoned food technique.
The test system of assay [10] is Pyricularia oryzae. The assay is described as follows: Growth inhibition of Magnaporthe oryzae at 500 ug/ml after 4 days by poisoned food technique.
Assay [11] has as its system Alternaria alternata. Description: Growth inhibition of Alternaria alternata at 50 ug/ml after 4 days by poisoned food technique.
The subject of assay [12] is Fusarium graminearum. Description: Growth inhibition of Fusarium graminearum at 500 ug/ml after 4 days by poisoned food technique.
Assay [13] relates to Alternaria alternata. Description: Growth inhibition of Alternaria alternata at 500 ug/ml after 4 days by poisoned food technique.
In assay [14] the test system is Fusarium graminearum. Description: Growth inhibition of Fusarium graminearum at 50 ug/ml after 4 days by poisoned food technique.

In the case of `N#Cc1ccccc1Oc1ccc(Cl)cc1`, the inhibition of growth at 50 µg/mL in [1] was 68%; in [3] it was 56.8%; in assay [5], 48.8%; in assay [7], 52.5%; in assay [9] it was 59.7%; in [11], 55.9%. In addition, the inhibition of growth at 50 µg/mL in assay [14] turned out to be 79.6%. For the same compound, the inhibition of growth at 500 µg/mL in assay [2] was 56.2%; in assay [4], 74.1%; in [6] it was 54.3%; in assay [8], 57%; in assay [10], 77.7%; in assay [12], 83.7%. Further, in assay [13], the inhibition of growth at 500 µg/mL amounted to 78%.
With `O=[N+]([O-])c1ccccc1Oc1ccccc1Cl`, the inhibition of growth at 50 µg/mL in assay [1] amounted to 88.7%; in assay [3] it was 64.5%; in assay [5], 48%; in [7], 59.7%; in assay [9], 51%; in assay [11] it was 52.8%. Also, the inhibition of growth at 50 µg/mL in assay [14] came out at 65.2%. Moreover, the inhibition of growth at 500 µg/mL in [2] turned out to be 71.1%; in assay [4] it was 76.2%; in assay [6], 53.8%; in [8] it was 58%; in [10], 71.6%; in assay [12] it was 78.6%. Also, in assay [13], the inhibition of growth at 500 µg/mL came out at 74%.
Consider `CC(C)(C)c1ccc(Oc2ccccc2[N+](=O)[O-])cc1`, for which the inhibition of growth at 50 µg/mL amounted to 50.3% in assay [1]; 38.4% in assay [3]; 8.4% in assay [5]; 19.3% in assay [7]; 37.9% in [9]; 33% in assay [11]. For the same compound, the inhibition of growth at 50 µg/mL in assay [14] was 38.8%. For the same compound, the inhibition of growth at 500 µg/mL turned out to be 38.7% in assay [2]; 37.4% in [4]; 17.3% in [6]; 11.2% in assay [8]; 44.8% in [10]; 52.7% in assay [12]. Moreover, the inhibition of growth at 500 µg/mL in assay [13] was found to be 53.3%.
For `Cc1cc(O)no1` [HYMEXAZOL], the inhibition of growth at 50 µg/mL in [1] came out at 100%; in assay [3], 89%; in [5] it was 19.8%; in assay [7] it was 45.8%; in [9], 66.4%; in [11], 82.3%. For the same compound, in assay [14], the inhibition of growth at 50 µg/mL was 38.7%. Further, the inhibition of growth at 500 µg/mL came to 37.1% in assay [2]; 100% in [4]; 91.5% in assay [6]; 92.3% in [8]; 100% in [10]; 99.4% in [12]. Also, the inhibition of growth at 500 µg/mL in assay [13] was 100%.
For `CC(C)(C)c1ccc(Oc2ccccc2C#N)cc1`, the inhibition of growth at 50 µg/mL in assay [1] was determined as 42.8%; in assay [3], 43.5%; in assay [5], 20.4%; in [7] it was 20.1%; in assay [9], 43.7%; in assay [11], 35.8%. In addition, the inhibition of growth at 50 µg/mL in [14] was found to be 38.3%. Further, the inhibition of growth at 500 µg/mL in assay [2] was 38.4%; in assay [4] it was 53.3%; in assay [6], 33.3%; in [8] it was 44.3%; in assay [10] it was 43.1%; in [12], 56%. Moreover, the inhibition of growth at 500 µg/mL in [13] worked out at 51%.
Turning to `O=[N+]([O-])c1ccccc1Oc1ccc(Cl)cc1`, the inhibition of growth at 50 µg/mL in [1] was 79.9%; in assay [3], 61%; in assay [5], 44.9%; in assay [7] it was 40.3%; in assay [9] it was 48.3%; in assay [11], 51.8%. Moreover, in assay [14], the inhibition of growth at 50 µg/mL worked out at 59.7%. Moreover, the inhibition of growth at 500 µg/mL in [2] came to 40.9%; in assay [4] it was 74.3%; in [6], 50.2%; in assay [8], 47.5%; in assay [10], 69%; in assay [12] it was 73.6%. Moreover, in assay [13], the inhibition of growth at 500 µg/mL stood at 71.7%.
As for `Cc1cccc(Oc2ccccc2[N+](=O)[O-])c1`, the inhibition of growth at 50 µg/mL in [1] came to 85.5%; in assay [3] it was 58.9%; in assay [5], 50.2%; in assay [7], 53.2%; in assay [9], 56.3%; in assay [11], 49%. Further, in [14], the inhibition of growth at 50 µg/mL was determined as 38.8%. Moreover, the inhibition of growth at 500 µg/mL came out at 58.5% in [2]; 73.9% in assay [4]; 46% in assay [6]; 46.7% in [8]; 82.8% in assay [10]; 70.1% in assay [12]. The inhibition of growth at 500 µg/mL in [13] worked out at 74.5%.
In the case of `CC(C)(C)c1ccc(Oc2ccc([N+](=O)[O-])cc2)cc1`, the inhibition of growth at 50 µg/mL stood at 21.6% in assay [1]; 32% in [3]; 3.6% in assay [5]; 14.1% in assay [7]; 32% in [9]; 25.5% in assay [11]. For the same compound, the inhibition of growth at 50 µg/mL in assay [14] is 55.6%. Moreover, the inhibition of growth at 500 µg/mL in assay [2] amounted to 23.5%; in [4] it was 32%; in assay [6], 10.3%; in [8], 67.7%; in assay [10] it was 40.4%; in assay [12], 56%. Further, in assay [13], the inhibition of growth at 500 µg/mL worked out at 27.7%.
Turning to `O=[N+]([O-])c1ccc(Oc2ccc([N+](=O)[O-])cc2)cc1` [4,4'-OXYBIS(NITROBENZENE)], the inhibition of growth at 50 µg/mL in assay [1] stood at 20.4%; in [3] it was 36.8%; in assay [5], 38%; in assay [7], 57.6%; in assay [9], 1.9%; in [11], 15%. In addition, the inhibition of growth at 50 µg/mL in assay [14] was determined as 13.6%. Also, the inhibition of growth at 500 µg/mL in assay [2] came to 16.7%; in [4] it was 75.2%; in assay [6], 50.9%; in assay [8], 63.6%; in [10] it was 36.6%; in assay [12], 3.1%. Besides, in assay [13], the inhibition of growth at 500 µg/mL is 19.8%.
